In PubChem BioAssay AID256 (DTP/NCI, 2004):
Several values for one entry are separate records, joined by “and”; a condition that tells them apart may be missing. Equal values may be shown once. Toxic doses and inconclusive results are not listed. How the source made its calls: active means survival T/C of 150% or more; inactive means T/C below 125% in these data. Non-standard residues stand in square brackets, D forms with d. Residues, ends and D or L forms follow the SMILES beside them. ξ: configuration not given here. *: point of attachment. ξF = NC(Cc1ccccc1)C(=O)O; Cbz = O=C(OCc1ccccc1)*; ξI = CCC(C)C(N)C(=O)O; OBn = c1ccc(CO*)cc1

Test system: CD2F1 mice, L1210 leukemia ip, survival T/C
Experiment: NCI In Vivo Anticancer Drug Screen. Data for tumor model L1210 Leukemia (intraperitoneal) in CD2F1 (CDF1) mice
Conditions: higher = longer survival
In short: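 In this screen, transplantable tumors were grown in mice given either the compound or its vehicle. Results were expressed as the treated measurement relative to the control measurement.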

[1] = endpoint: mean survival time, dose: 100.0 mg/kg/injection, schedule: Q04DX002 (ip), vehicle: saline with Tween-80
[2] = endpoint: mean survival time, dose: 100.0 mg/kg/injection, schedule: Q04DX003 (ip), vehicle: saline with Tween-80
[3] = endpoint: mean survival time, dose: 200.0 mg/kg/injection, schedule: Q04DX003 (ip), vehicle: saline with Tween-80
[4] = endpoint: mean survival time, dose: 400.0 mg/kg/injection, schedule: Q04DX003 (ip), vehicle: saline with Tween-80

Measured: T/C

CCC(C)C(NC(=O)CN)C(=O)O (stereo not given) (H-Gly-[ξI]-OH)
inactive: [1] 100 % of control | endpoint: mean survival time, dose: 100.0 mg/kg/injection, schedule: Q04DX002 (ip), vehicle: saline 94 % of control | endpoint: mean survival time, dose: 200.0 mg/kg/injection, schedule: Q04DX002 (ip), vehicle: saline with Tween-80 103 % of control | endpoint: mean survival time, dose: 200.0 mg/kg/injection, schedule: Q04DX002 (ip), vehicle: saline 90 % of control | endpoint: mean survival time, dose: 400.0 mg/kg/injection, schedule: Q04DX002 (ip), vehicle: saline with Tween-80 95 % of control | endpoint: mean survival time, dose: 400.0 mg/kg/injection, schedule: Q04DX002 (ip), vehicle: saline 101 % of control

N#CC(=C1CCCCC1)c1ccccc1
inactive: endpoint: mean survival time, dose: 75.0 mg/kg/injection, schedule: Q01DX001 (ip), vehicle: saline 98 % of control | endpoint: mean survival time, dose: 150.0 mg/kg/injection, schedule: Q01DX001 (ip), vehicle: saline 104 % of control | endpoint: mean survival time, dose: 300.0 mg/kg/injection, schedule: Q01DX001 (ip), vehicle: saline 96 % of control

COc1ccc(OCCOC(=O)Nc2ccc(Cl)cc2OC)cc1
inactive: endpoint: mean survival time, dose: 50.0 mg/kg/injection, schedule: Q01DX009 (ip), vehicle: saline with Tween-80 89 % of control | endpoint: mean survival time, dose: 100.0 mg/kg/injection, schedule: Q01DX009 (ip), vehicle: saline with Tween-80 93 % of control | endpoint: mean survival time, dose: 200.0 mg/kg/injection, schedule: Q01DX009 (ip), vehicle: saline with Tween-80 93 % of control

CC(C)CC(Br)C(=O)NCC(=O)NC(Cc1ccccc1)C(=O)O (stereo not given)
inactive: [2] 106 % of control | [3] 97 % of control | [4] 96 % of control

O=C(CNC(=O)OCc1ccccc1)NCC(=O)NC(Cc1ccccc1)C(=O)OCc1ccccc1 (stereo not drawn) (Cbz-Gly-Gly-[ξF]-OBn)
inactive: [2] 97 % of control | [3] 103 % of control | [4] 99 % of control

CCC(CNCCCC(=O)O)(C(=O)O)C(=O)O
inactive: endpoint: mean survival time, dose: 25.0 mg/kg/injection, schedule: Q04DX002 (ip), vehicle: saline with Tween-80 98 % of control | endpoint: mean survival time, dose: 50.0 mg/kg/injection, schedule: Q04DX002 (ip), vehicle: saline with Tween-80 94 % of control | [1] 102 % of control

CCC1CCCCC1(O)CC (stereo not given)
inactive: [2] 106 % of control | [3] 103 % of control | [4] 103 % of control

N#CC1C(C#N)C1C#N (stereo not given)
inactive: endpoint: mean survival time, dose: 100.0 mg/kg/injection, schedule: Q01DX001 (ip), vehicle: saline with Tween-80 98 % of control | endpoint: mean survival time, dose: 200.0 mg/kg/injection, schedule: Q01DX001 (ip), vehicle: saline with Tween-80 98 % of control

CCCCn1c2ccccc2c2ccccc21
inactive: [2] 94 % of control | [4] 94 % of control

CN(C)CCCN1c2ccccc2Sc2ccc(Cl)cc21
inactive: endpoint: mean survival time, dose: 12.5 mg/kg/injection, schedule: Q01DX001 (ip), vehicle: saline 107 % of control | endpoint: mean survival time, dose: 12.5 mg/kg/injection, schedule: Q01DX009 (ip), vehicle: saline with Tween-80 115 % of control | endpoint: mean survival time, dose: 25.0 mg/kg/injection, schedule: Q01DX001 (ip), vehicle: saline 117 % of control | endpoint: mean survival time, dose: 25.0 mg/kg/injection, schedule: Q01DX009 (ip), vehicle: saline with Tween-80 86 % of control | endpoint: mean survival time, dose: 50.0 mg/kg/injection, schedule: Q01DX001 (ip), vehicle: saline 120 % of control | endpoint: mean survival time, dose: 100.0 mg/kg/injection, schedule: Q01DX001 (ip), vehicle: saline 111 % of control | endpoint: mean survival time, dose: 200.0 mg/kg/injection, schedule: Q04DX003 (ip), vehicle: saline 97 % of control | endpoint: median survival time, dose: 15.0 mg/kg/injection, schedule: Q01DX001 (ip), vehicle: water 118 % of control and 107 % of control | endpoint: median survival time, dose: 25.0 mg/kg/injection, schedule: Q01DX001 (ip), vehicle: water 119 % of control and 107 % of control | endpoint: median survival time, dose: 30.0 mg/kg/injection, schedule: Q04DX003 (ip), vehicle: saline 80 % of control | endpoint: median survival time, dose: 50.0 mg/kg/injection, schedule: Q01DX001 (ip), vehicle: water 114 % of control and 120 % of control | endpoint: median survival time, dose: 60.0 mg/kg/injection, schedule: Q04DX003 (ip), vehicle: saline 80 % of control | endpoint: median survival time, dose: 75.0 mg/kg/injection, schedule: Q01DX001 (ip), vehicle: water 114 % of control | endpoint: median survival time, dose: 120.0 mg/kg/injection, schedule: Q04DX003 (ip), vehicle: saline 87 % of control

Brc1c(Br)c(Br)c2n[nH]nc2c1Br
inactive: endpoint: mean survival time, dose: 50.0 mg/kg/injection, schedule: Q01DX009 (ip), vehicle: saline 104 % of control | endpoint: mean survival time, dose: 100.0 mg/kg/injection, schedule: Q01DX009 (ip), vehicle: saline 104 % of control | endpoint: mean survival time, dose: 200.0 mg/kg/injection, schedule: Q01DX009 (ip), vehicle: saline 108 % of control
